Test results from patent publication US7056908B2, “Pharmaceutical compositions and methods for preventing skin tumor formation and causing regression of existing tumors” (priority 1991, dated 2006).

What was measured:
[1] = test system: primary keratinocytes; assay: Morphological changes and detachment of primary keratinocytes; assay type: cell-based, mouse; settings: for alteration of cell morphology first detectable after: 10 nM staurosporine or 160 nM TPA, 0.05 mM Ca2+ medium
[2] = test system: 40 kD protein (pp40); assay: 32P phosphoprotein analysis in digitonin-permeabilized keratinocytes; assay type: cell-based, mouse; settings: for phosphorylation of band at about 40 kD (pp40): 160 nM TPA or 10 nM staurosporine
Protocol: Cell Permeabilization and ^32P-Labelled Phosphoprotein Analysis. Primary mouse keratinocytes were permeabilized with digitonin to facilitate uptake of ^32P-ATP essentially as described (Erusalimsky, J. D. et al, “Diacylglycerols, and phorbol esters rapidly stimulate the phosphorylation of an Mr=80,000 protein kinase C substrate in permeabilized 3T3 cells,” J. Biol. Chem., 263: 19188–19194, 1988). To first assess the efficacy of permeabilization at different digitonin concentrations, 5–10 μg/ml of the DNA-binding fluorochrome propidium iodide (Jones, K. H. et al, “An improved method to determine cell viability by simultaneous staining with fluorescein diacetate-propidium iodide,” J. Histochem. Cytochem., 33: 77–79, 1985) was added to permeabilization buffer instead of labelled ATP. After incubation at 37° for 1–3 minutes, the buffer was removed and cells washed 3–4 times with PBS prior to fluorescence microscopy. […] Following ^32P-labelling, cells were immediately harvested and lysates subject to SDS/8.5% polyacrylamide gel electrophoresis. Approximate molecular weights were determined using pre-stained protein markers (Amersham, Arlington Heights, Ill.). Dried gels were exposed to Kodak X-Omat AR film at −70° prior to development.
Cells were harvested immediately and proteins separated by SDS/PAGE. Dried gels were exposed to Kodak X-Omat AR film at −70° for 12–24 hours prior to development.

[3] = test system: primary keratinocytes; assay type: cell-based, mouse
Protocol: EGF binding was assessed in 6-well tissue culture dishes plated at a cell density of 2.5×10^6 cells/well (Strickland, J. E. et al, “Interaction of epidermal growth factor with basal and differentiating epidermal cells of mice resistant and sensitive to carcinogenesis,” Carcinogenesis, 5: 735–740, 1984). […] A second set of cultures received, in addition, 1 μg/ml unlabelled EGF to assess non-specific binding of radioactive ligand. Following the incubation period, cultures were washed 4 times with ice-cold binding buffer, harvested in 1.5 ml lysis buffer (0.1 M tris (pH 7.4), 0.5% SDS, 1 mM EDTA), and radioactivity determined by scintillation counting.
Exposure of a variety of cultured cell types to TPA results in inhibition of EGF binding which is attributed to PKC-mediated phosphorylation of the EGF receptor (Diamond, L., “Tumor promoters and cell transformation,” In: D. Grunberger and S. P. Goff. (eds.), Mechanisms of Cellular Transformation by Carcinogenic Agents, pp. 73–133, New York: Pergamon Press. 1987).
Each point is the mean of trilpicate dishes±standard error of the mean.

[4] = test system: primary keratinocytes; assay: Cornified envelope formation in primary keratinocytes; assay type: cell-based, mouse; settings: 10 nM staurosporine or 160 nM TPA for 24 hours; 7 day old cultures
Protocol: Cornified Envelope Quantitation. Keratinocytes were analyzed for cornified envelope formation as described (Nagae, S. et al, “Effect of retinoic acid on cornified envelope formation: difference between spontaneous envelope formation in vivo or in vitro and expression of envelope competence,” J. Invest., Dermatol., 89: 51–58, 1987), with minor modifications. Floating cells were harvested by collecting culture medium from each 60 mm dish and combining with two washes using phosphate-buffered saline without Ca^2+ and Ms^+2 (PBS). Cells were pelleted for 5 minutes at 1000 rpm in a benchtop clinical centrifuge and resuspended in 100 μl of lysis buffer (2% sodium dodecyl sulfate (SDS) and 20 mM dithiothreitol in PBS). Attached cells were harvested in 250 μl lysis buffer, combined with the preparation of floating cells, and incubated at 95° for 10 minutes. The non-solubilized, intact cornified envelopes, characteristic of terminally differentiated keratinocytes, were counted using a hemocytometer (Nagae, S. et al, “Effect of retinoic acid on cornified envelope formation: difference between spontaneous envelope formation in vivo or in vitro and expression of envelope competence,” J. Invest. Dermatol., 89: 51–58, 1987).
Floating and attached cell populations were harvested and cornified envelopes isolated. Data are mean values for three separate dishes±standard error of the mean from one experiment.
7 day old primary keratinocytes were cultured with or without 60 nM bryostatin for 15 hours. […] Each data bar is the average value from duplicate dishes with the range indicated by error bars.

[5] = test system: human bladder carcinoma cells; settings: systemic administration at 1/10 or 1/20 the maximum tolerated dose; cited from earlier work
[6] = test system: grafted SP-1 mouse papilloma cells; assay: Tumor formation from grafted SP-1 papilloma cells on nude mice, topical treatment; assay type: in vivo; settings: 6.25 nmoles/treatment
Protocol: For grafting, BALB/c-derived nude mice, approximately two months-old, were used as hosts. Animals were anesthetized with Nembutal and sterile surgical technique was used. 0.5×10^6 SP-1 or 308 cells were grafted along with 6–8×10^6 primary SENCAR mouse dermal fibroblasts. […] Cells were removed from culture dishes by treatment with 0.25% trypsin-0.01% EDTA for approximately 10 min. at 36° and washed with medium. Suspensions of papilloma cells and primary dermal fibroblasts were centrifuged 5 min. at 1000 rpm, the medium aspirated, and the cell pellet applied to the graft bed using a sterile plastic transfer pipet. Graft tumors were measured weekly, using calipers, starting three weeks after grafting and for at least 5 additional weeks thereafter. As an approximate tumor volume, the height was multiplied by the smallest and largest lateral measurements. Data are expressed as means i standard error of the mean of approximate tumor volume in mm^3.
Five mice in each group were grafted Feb. 28, 1990 with 0.5×10^6 SP-1 cells+6×10^6 primary SENCAR mouse dermal fibroblasts.
Tumor measurements were begun three weeks after grafting and continued for eight weeks.
Ten mice in each group were grafted Mar. 22, 1990 with 0.5×10^6 SP-1 cells+6×10^6 primary SENCAR mouse dermal fibroblasts.
Ten mice in each group were grafted May 17, 1990 with 0.5×10^6 SP-1 cells+6×10^6 primary SENCAR mouse dermal fibroblasts. […]

[7] = test system: primary keratinocytes; assay: Ornithine decarboxylase activity in primary keratinocytes; assay type: cell-based, mouse; settings: 5 hours exposure
Protocol: Enzyme Assays. Activity of epidermal transglutaminase was determined by measuring cross-linking of ^3H-putrescine to dimethylcasein (20). Cell lysates were incubated at […] for 10 minutes to inactivate tissue transglutaminase. Ornithine decarboxylase activity of cell lysates was determined by quantifying release of ^14CO2 from ^14C-ornithine (Sako, T. et al, “Partial parallelism and partial blockade by bryostatin 1 of effects of phorbol ester tumor promoters on primary mouse epidermal cells,” Cancer Res., 47: 5445–5450, 1987).
Each point is the mean for four dishes±standard error of the mean from one experiment. Similar results were obtained in an additional experiment. As with staurosporine-mediated induction of transglutaminase, this response is restricted to a narrow dose range between 5 and 10 nM.

[8] = test system: primary keratinocytes; assay: Cell toxicity by trypan blue exclusion; assay type: cell-based, mouse
Protocol: Miscellaneous Assays. Cell toxicity was determined using trypan blue exclusion as a marker for viable cells. Cells growing in 60 mm culture dishes were washed once with PBS, incubated at room temperature with 1 ml 0.4% trypan blue in normal saline (GIBCO, Rockville, Md.), washed twice with PBS, then placed on ice until cells were counted. Protein in cell lysates was determined using a commercial colorimetric assay (Bio-Rad Laboratories, Richmond, Calif.).
Phase-contrast photomicrographs were taken at the indicated times after beginning treatment. Similar results were obtained in three additional experiments. Magnification was ×90.

| SMILES | alteration of cell morphology first detectable after [1] | cells rounded-up and detached from the substrate ([1]; 160 nM TPA, after 24 hours) | phosphorylation of band at about 40 kD (pp40) ([2]; 3 minutes) | reduction of 125I-EGF binding relative to controls [3] | increase in cornified envelopes relative to control cultures [4] | cells detached from the substrate ([1]; 10 nM staurosporine, 24 hours) | treatment time required for a maximal response ([1]; morphological response to staurosporine) | retardation of tumor growth [5] | effect of higher doses on papilloma growth [6] | overall protein phosphorylation ([2]; 10 nM staurosporine, 3 minutes) | effect of co-exposure on TPA-mediated phosphorylation of pp40 ([2]; 160 nM TPA and 10 nM staurosporine) | inducing phosphorylation of pp40 ([2]; additional doses ranging from 0.1 to 5 nM) | ornithine decarboxylase activity [7] | cells trypan blue positive ([8]; 7.5 hour exposure to 1 μM staurosporine) | cells that took up trypan blue ([8]; ≦10 nM staurosporine) |
| --- | --- | --- | --- | --- | --- | --- | --- | --- | --- | --- | --- | --- | --- | --- | --- |
| CCCCCCCCCCCCCC(=O)O[C@@H]1[C@@H](C)[C@@]2(O)[C@@H](C=C(CO)C[C@]3(O)C(=O)C(C)=C[C@@H]23)[C@H]2C(C)(C)[C@]12OC(C)=O [TPA, 12-0-tetradecanoylphorbol-13-acetate, reference compound] | 20 minutes | about 50% | enhanced phosphorylation | 94% | 4 fold | – | – | – | – | – | – | – | – | – | – |
| CN[C@@H]1C[C@H]2O[C@@](C)([C@@H]1OC)n1c3ccccc3c3c4c(c5c6ccccc6n2c5c31)C(=O)NC4 [staurosporine] | 20 minutes | – | not detected | – | – | nearly all cells | 24 h | approximately 60% | appear to stimulate papilloma growth | reduction in overall protein phosphorylation | blocked the TPA-mediated phosphorylation | ineffective | induction of ornithine decarboxylase activity | 74% | < 5% |
